This passage reports inhibition results from patent publication EP1724268A1, “COMPOUND HAVING TGF-BETA INHIBITORY ACTIVITY AND PHARMACEUTICAL COMPOSITION CONTAINING SAME” (KIRIN BEER KABUSHIKI KAISHA, priority 2004, dated 2005).

Where two headings read alike, the source gives them in different places.

This experiment relates to TGFβ signal. The experiment in a line: TGFβ signal inhibitory activity, (SBE)4-Luc reporter in A549 cells (Test Examples 1A and 1B). Type of experiment: cell-based, human. The following applies: Homo sapiens, A549, read-out: TGFβ inhibition rate, %; for inhibition at 1 µM: test compound 1 µM. The method in brief: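 Stable A549 line carrying (SBE)4-Luc Smad3-binding reporter treated with compound plus TGFβ-1 (2 ng/ml) for 4 hr; luciferase read by chemiluminescence. Percent inhibition relative to TGFβ-only and untreated cells, tested at 3 µM and 10 µM, some also at 1 µM.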

Setting [1] is: 3 µM, compounds of Reference Examples (Test Example 1B).
Where [2] appears, read: 10 µM, compounds of Reference Examples (Test Example 1B).
The mark [3] stands for this setting: test compound 3 µM, TGFβ-1 2 ng/ml, 4 hr, Table 1A.
Setting [4] is: test compound 10 µM, TGFβ-1 2 ng/ml, 4 hr, Table 1A.
[5] abbreviates: test compound 3 µM, Reference Examples, Table 1B.
[6] abbreviates: test compound 10 µM, Reference Examples, Table 1B.

Broadly, the inhibition is how much of the control response was suppressed. Consider `COc1cc2nccc(Oc3ccc(C)nc3-c3ccccc3C)c2cc1OC` [Compound r224], for which, under setting [1], the inhibition at 3 µM is 69%. Under setting [2], the inhibition at 10 µM was 96%. The corresponding values for `COc1cc2nccc(Oc3ccc(C)cc3C(O)CCCCCCCCCO)c2cc1OC` (centres unmarked) [r165] are 38% and 89%. The corresponding values for `COc1cc2nccc(Oc3cc4ccccc4nc3I)c2cc1OC` [r282] are 96% and 100%.

As for `Cc1ccc(Oc2ccnc3ccc(OCCCN(CCO)c4ccccc4)cc23)c(-c2ncccn2)n1` [Compound 219, 2-({3-[4-(6-Methyl-2-pyrimidin-2-yl-pyridin-3-yloxy)-quinolin-6-yloxy]-propyl}-phenylamino)-ethanol], the inhibition at 3 µM under setting [3] was 96%. Besides, the inhibition at 10 µM under setting [4] turned out to be 100%. In the case of `COc1cc2c(Oc3cc(C)c(C)nc3-c3nc(C)c(C)s3)ccnc2cc1OCCO` [Compound r461], under setting [1], the inhibition at 3 µM came to 82%. Consider `COc1cncc(-c2nc(C)c(C)cc2Oc2ccnc3cc(OC)c(OC)cc23)c1` [Compound 45, 3-(6,7-Dimethoxy-quinolin-4-yloxy)-5'-methoxy-5,6-dimethyl-[2,3']bipyridine], for which the inhibition at 3 µM under setting [3] is 89%. The inhibition at 10 µM under setting [4] is 100%. Regarding `CCCOC(=O)c1cc(-c2ccc(F)cc2F)ccc1Oc1ccnc2cc(OC)c(OC)cc12` [Compound r96], the inhibition at 3 µM under setting [5] was 19%. The inhibition at 10 µM under setting [6] was determined as 65%. For the compound `COc1cc2nccc(Oc3cc(C)c(C)nc3-c3ccccc3)c2cc1OC` [r268], the inhibition at 3 µM under setting [1] is 100%. The inhibition at 10 µM under setting [2] was found to be 100%.

For the compound `Cc1cc(Oc2ccnc3cc(-c4cccnc4)ccc23)c(-c2ccccn2)nc1C` [Compound 18, 5,6-Dimethyl-3-(7-pyridin-3-yl-quinolin-4-yloxy)-[2,2']bipyridine], the inhibition at 3 µM under setting [3] came to 95%. For the same compound, under setting [4], the inhibition at 10 µM was found to be 100%. Turning to `Cc1cc(Oc2ccnc3cc(Br)ccc23)c(-c2ccccn2)nc1C` [Compound 14, 3-(7-Bromo-quinolin-4-yloxy)-5,6-dimethyl-[2,2']bipyridine], the inhibition at 3 µM under setting [3] was 100%. For the same compound, the inhibition at 10 µM under setting [4] was found to be 100%.

For `COc1cc2c(Oc3cc4ccccc4nc3C)ccnc2cc1OCc1ccccc1` [Compound r351, 7-Benzyloxy-6-methoxy-4-(2-methyl-quinolin-3-yloxy)-quinoline], under setting [1], the inhibition at 3 µM came to 42%. The inhibition at 10 µM under setting [2] was found to be 90%. Turning to `Cc1ccc(Oc2ccnc3ccc(OCCCCl)cc23)c(-c2ncccn2)n1` [Compound 210, 6-(3-Chloro-propoxy)-4-(6-methyl-2-pyrimidin-2-yl-pyridin-3-yloxy)-quinoline], the inhibition at 3 µM under setting [3] stood at 87%. In the case of `COc1cc2c(Oc3ccc(C)cc3C(=O)c3ccccc3)ccnc2cc1OCCCN1CCNCC1` [r137], the inhibition at 3 µM under setting [5] amounted to 100%. In addition, the inhibition at 10 µM under setting [6] was found to be 100%. In the case of `COc1cc2c(Oc3cc(C)c(C)nc3-c3ccc(C)cn3)ccnc2cc1OCC1CO1` (centres unmarked) [Compound r457], the inhibition at 3 µM under setting [1] is 97%. Under setting [2], the inhibition at 10 µM came out at 100%. With `CCCCC(CC)COC(=O)c1ccccc1Oc1ccnc2cc(OC)c(OC)cc12` (centres unmarked) [Compound r101], the inhibition at 3 µM under setting [5] was determined as 0%. Also, under setting [6], the inhibition at 10 µM worked out at 64%. With `Clc1cc2nccc(Oc3cc4cccnc4nc3-c3ccccc3)c2cc1Cl` [Compound 58, 3-(6,7-Dichloro-quinolin-4-yloxy).2-phenyl-[1,8]naphthyridine], the inhibition at 3 µM under setting [3] was 83%. Also, under setting [4], the inhibition at 10 µM is 100%. Turning to `COc1cc2c(Oc3cc4cccnc4nc3C)ccnc2cc1OCC1CO1` (centres unmarked) [Compound r401], the inhibition at 3 µM under setting [1] turned out to be 24%. Besides, the inhibition at 10 µM under setting [2] was found to be 76%.

For the compound `Cc1cc(Oc2ccnc3cc(OCc4ccccc4)ccc23)c(-c2ccccn2)nc1C` [Compound 137, 3-(7-Benzyloxy-quinolin-4-yloxy)-5,6-dimethyl-[2,2']bipyridine], the inhibition at 3 µM under setting [3] was 88%. Further, the inhibition at 10 µM under setting [4] was determined as 100%. The corresponding values for `COc1cc2nccc(Oc3cc(C)c(C)nc3-c3ccccn3)c2cc1OCCO` [Compound 144, 2-[4-(5,6-Dimethyl-[2,2']bipyridinyl-3-yloxy)-7-methoxy-quinolin-6-yloxy]-ethanol] are 93% and 100%. Regarding `COc1cc2c(Oc3cc(C)c(C)nc3-c3nc(C)c(C)s3)ccnc2cc1O` [Compound r455], the inhibition at 3 µM under setting [1] turned out to be 76%. The inhibition at 10 µM under setting [2] worked out at 99%.

Consider `COc1cc2c(Oc3cc(C)c(C)nc3-c3ccccc3)ccnc2cc1O` [Compound r332], for which the inhibition at 3 µM under setting [1] turned out to be 97%. For the same compound, the inhibition at 10 µM under setting [2] is 100%. For `Cc1cc(Oc2ncnc3ccccc23)c(-c2ccccn2)nc1C` [Compound 23, 4-(5,6-Dimethyl-[2,2']bipyridinyl-3-yloxy)-quinazoline], the inhibition at 3 µM under setting [3] worked out at 78%. Moreover, the inhibition at 10 µM under setting [4] came to 98%. For the compound `COc1cc2nccc(Oc3c(OC)cccc3C(C)=O)c2cc1OC` [Compound r30], the inhibition at 3 µM under setting [5] turned out to be 0%. Besides, the inhibition at 10 µM under setting [6] was 61%.

Turning to `COc1cc2c(Oc3cc4ccccc4nc3C)ccnc2cc1CCCO` [Compound r411], the inhibition at 3 µM under setting [1] came out at 50%. Moreover, under setting [2], the inhibition at 10 µM came to 85%.

As for `COc1cc2c(Oc3cc4ccccc4nc3C)ccnc2cc1OCC(N)=O` [Compound r370], under setting [1], the inhibition at 3 µM is 85%. Under setting [2], the inhibition at 10 µM is 99%. The corresponding values for `COc1cc2nccc(Oc3cc4cccnc4cc3OC)c2cc1OC` [Compound r297, 6,7-Dimethoxy-4-(7-methoxy-quinolin-6-yloxy)-quinoline] are 61% and 94%. In the case of `COc1cc2nccc(Oc3ccccc3C(=O)OC(C)C)c2cc1OC` [Compound r93], the inhibition at 3 µM under setting [5] was 44%. Moreover, the inhibition at 10 µM under setting [6] is 88%. On to `COc1cc2nccc(Oc3cc4cccnc4nc3-c3ccc(C)cc3)c2cc1OC` [r428], for which the inhibition at 3 µM under setting [1] is 67%. Regarding `COc1cc2nccc(Oc3ccc(C)nc3-c3ncccn3)c2cc1OC` [Compound 188, 4-(6-Methyl-2-pyrimidin-2-yl-pyridin-3-yloxy)-6,7-dimethoxy-quinoline], under setting [3], the inhibition at 3 µM was 100%. Under setting [4], the inhibition at 10 µM amounted to 100%.

On to `CCC(=O)c1cccc(F)c1Oc1ccnc2cc(OC)c(OC)cc12` [r43], for which the inhibition at 3 µM under setting [5] worked out at 0%. In addition, the inhibition at 10 µM under setting [6] is 66%.

Take `Cc1cc(Oc2ccnc3ccc(-c4ncccn4)cc23)c(-c2ccccn2)nc1C` [Compound 175, 5,6-Dimethyl-3-(6-pyrimidin-2-yl-quinolin-4-yloxy)-[2,2']bipyridine]: the inhibition at 3 µM under setting [3] came out at 97%. In addition, the inhibition at 10 µM under setting [4] came out at 100%. Regarding `CCOC(=O)c1ccccc1Oc1ccnc2cc(OC)c(OC)cc12` [Compound r80], under setting [5], the inhibition at 3 µM worked out at 62%. In addition, the inhibition at 10 µM under setting [6] worked out at 95%. `COc1cc2nccc(Oc3ccc(C)nc3-c3ccccc3C(C)=O)c2cc1OC` [Compound r225]: the inhibition at 3 µM under setting [1] came to 39%. Further, the inhibition at 10 µM under setting [2] worked out at 78%. `COc1cc2nccc(Oc3ccccc3C(=O)OCc3ccccc3)c2cc1OC` [r103]: the inhibition at 3 µM under setting [5] amounted to 20%. Further, the inhibition at 10 µM under setting [6] came out at 84%. Take `Cc1cc(Oc2ccnc3ccccc23)c(-c2cccnc2)nc1C` [Compound 43, 5,6-Dimethyl-3-(quinolin-4-yloxy)-[2,3']bipyridine]: under “TGFβ-1 2 ng/ml, 4 hr, Table 1A”, the inhibition at 1 µM stood at 45%. The inhibition at 3 µM under setting [3] was 84%. In the case of `Cc1ccc(Oc2ccnc3ccc(OCCC4CCCCC4)cc23)c(-c2ncccn2)n1` [Compound 216, 6-(2-Cyclohexylethoxy)-4-(6-methyl-2-pyrimidin-2-yl-pyridin-3-yloxy)-quinoline], the inhibition at 3 µM under setting [3] was determined as 84%. In the case of `COc1ccc2c(Oc3cc(C)c(C)nc3-c3ccccn3)ccnc2c1` [Compound 16, 3-(7-Methoxy-quinolin-4-yloxy)-5,6-dimethyl-[2,2']bipyridine], the inhibition at 1 µM (TGFβ-1 2 ng/ml, 4 hr, Table 1A) is 97%. For the same compound, the inhibition at 3 µM under setting [3] worked out at 100%.

On to `COc1cc2c(Oc3cc4ccccc4nc3C)ccnc2cc1OCCCCl` [Compound r375], for which the inhibition at 3 µM under setting [1] was determined as 84%. Further, the inhibition at 10 µM under setting [2] worked out at 100%.

Regarding `Fc1cc2nccc(Oc3cc4cccnc4nc3-c3ccccc3)c2cc1F` [Compound 101], the inhibition at 3 µM under setting [3] was determined as 54%. Under setting [4], the inhibition at 10 µM worked out at 98%. With `COc1cc2nccc(Oc3ccc4ncccc4c3)c2cc1OC` [r24], the inhibition at 3 µM under setting [5] is 66%. For the same compound, under setting [6], the inhibition at 10 µM worked out at 91%. With `CCCOC(=O)c1cc2ccccc2cc1Oc1ccnc2cc(OCCCn3ccnc3)c(OC)cc12` [Compound r327], the inhibition at 3 µM under setting [1] is 89%. Also, the inhibition at 10 µM under setting [2] is 100%.

Take `COc1cc2nccc(Oc3cc4cccnc4nc3-c3ccc(C#N)cc3)c2cc1OC` [Compound 86, 4-[3-(6,7-Dimethoxy-quinolin-4-yloxy)-[1,8]naphthyridin-2-yl]-benzonitrile]: the inhibition at 3 µM under setting [3] was determined as 26%. Moreover, under setting [4], the inhibition at 10 µM amounted to 74%. Regarding `COc1cc2c(Oc3cc4ccccc4nc3C(C)=O)ccnc2cc1OCCCO` [Compound r456], the inhibition at 3 µM under setting [1] came out at 99%. The inhibition at 10 µM under setting [2] is 100%. The corresponding values for `COc1cc2nccc(Oc3ccc(C)nc3-c3ccccc3OC)c2cc1OC` [Compound r227] are 50% and 87%. The corresponding values for `COc1cc2nccc(Oc3ccc(C)nc3-c3cccc(C(N)=O)c3)c2cc1OC` [Compound r233] are 98% and 100%.
